According to patent publication US20260015358A1, “BICYCLIC DERIVATIVES, COMPOSITIONS AND USES THEREOF” (Danatlas Pharmaceuticals Co., Ltd., priority 2023, published 2026):

What was measured:
[1] = biological target: T1, WRN [UniPro: Q14191 (WRN_HUMAN), N500-C946] (Homo sapiens (Human), UniProt Q14191); test: WRN ATPase assay (ADP-Glo); assay type: biochemical; conditions: WRN enzymatic activity assay
Protocol: WRN ATPase assay was initiated to evaluate potential inhibitory effect of compounds for ATP hydrolysis activity of WRN protein. WRN [UniPro: Q14191 (WRN_HUMAN), N500-C946] was expressed and purified in insect system and stored at −80° C. in aliquots. […] ADP quantity produced from ATP hydrolysis by WRN catalytic reaction was measured using a commercially available ADP-Glo Assay (ADP-Glo™ Kinase Assay from Promega, 10000 assays, #V9102). […] Compounds dissolved in DMSO (Sigma, D8418) were plated into a 96-well intermediate plate (BioFil, VWP-032-096) for 3-fold serial titration for 10 points using DMSO, and well-to-well transfer the titrated compounds into another 96-well intermediate plate including assay buffer in advance. Shake the 96-well intermediate plate at 600 rpm for 10 min to fully mix. Specifically, a 4× working mixture of WRN was diluted to a concentration of 8 nM in assay buffer. […] After centrifuging at 1000 rpm and shaking at 500 rpm, the assay plate was pre-incubated for 30 min. Then, 5 μL 2×FORKF DNA and ATP working mixture was dispensed into assay plate. Plate was sealed, centrifuged and incubated for an additional 40 min. at 37° C. The reaction was stopped with the addition of 10 μL of the first ADP-Glo reagent and incubated for 40 min. to remove the excess amount of ATP. Afterwards, 20 μL of ATP detection reagent was added and incubated for 30 min. before reading. Luminescence output was recorded using BMG CLARIO star plus reader. Each concentration of compound was tested in duplicates in the assay plate. Average luminescence signal of high control (Wells with 1% DMSO) was calculated as High Control (HC). Average luminescence signal of low control (Wells with no WRN protein) was calculated as Low control (LC).
IC50 values were determined by fitting the data to the standard 4 parameters with Hill Slope using GraphPad Prism software.

[2] = biological target: T1, WRN [UniPro: Q14191 (WRN_HUMAN), N500-C946]; test: WRN unwinding assay (FORKF DNA, fluorescence); assay type: biochemical; conditions: Table 14

T1 sequence (Q14191 500-946): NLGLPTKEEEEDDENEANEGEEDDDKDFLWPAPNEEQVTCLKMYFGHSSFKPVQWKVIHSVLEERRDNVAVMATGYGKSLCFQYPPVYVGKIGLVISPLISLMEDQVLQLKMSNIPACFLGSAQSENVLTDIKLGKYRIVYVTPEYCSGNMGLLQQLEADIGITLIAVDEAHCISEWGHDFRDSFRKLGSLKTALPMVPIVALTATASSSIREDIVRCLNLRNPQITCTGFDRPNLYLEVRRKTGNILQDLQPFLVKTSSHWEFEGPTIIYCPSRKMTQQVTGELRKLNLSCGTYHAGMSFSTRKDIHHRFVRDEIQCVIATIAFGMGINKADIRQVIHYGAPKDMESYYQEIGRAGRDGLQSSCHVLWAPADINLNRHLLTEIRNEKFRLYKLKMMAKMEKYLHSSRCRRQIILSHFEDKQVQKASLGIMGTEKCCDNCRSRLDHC

Compound	IC50 [1] [nM]	IC50 [2] [nM]
CCc1c(N2CCN(C(=O)CNC(=O)c3cccc(F)c3N)CC2)c(=O)n2nc(N3CCOCC3)nc2n1CC(=O)Nc1ccc(C(F)(F)F)cc1F [Example 255, 2-Amino-N-(2-(4-(5-Ethyl-4-(2-((2-fluoro-4-(trifluoromethyl)phenyl)amino)-2-oxoethyl)-2-morpholino-7-oxo-4,7-dihydro-[1,2,4]triazolo[1,5-a]pyrimidin-6-yl)piperazin-1-yl)-2-oxoethyl)-3-fluorobenzamide]	< 100	< 100
CCc1c(N2CCN(C(=O)CNC(=O)c3cccc(N)c3)CC2)c(=O)n2nc(C3=CCOCC3)nc2n1CC(=O)Nc1ccc(C(F)(F)F)cc1Cl [Example 288, 3-Amino-N-(2-(4-(4-(2-((2-chloro-4-(trifluoromethyl)phenyl)amino)-2-oxoethyl)-2-(3,6-dihydro-2H-pyran-4-yl)-5-ethyl-7-oxo-4,7-dihydro-[1,2,4]triazolo[1,5-a]pyrimidin-6-yl)piperazin-1-yl)-2-oxoethyl)benzamide]	< 100	< 100
CCc1c(N2CCN(C(=O)CNC(=O)c3cc(N)c(F)cc3F)CC2)c(=O)n2nc(C3=CCOCC3)nc2n1CC(=O)Nc1ccc(C(F)(F)F)cc1Cl [Example 373, 5-Amino-N-(2-(4-(4-(2-((2-chloro-4-(trifluoromethyl)phenyl)amino)-2-oxoethyl)-2-(3,6-dihydro-2H-pyran-4-yl)-5-ethyl-7-oxo-4,7-dihydro-[1,2,4]triazolo[1,5-a]pyrimidin-6-yl)piperazin-1-yl)-2-oxoethyl)-2,4-difluorobenzamide]	< 100	100 to 1000
CCc1c(N2CCN(C(=O)C(=O)Nc3nccs3)CC2)c(=O)n2nc(N3CCOCC3)nc2n1CC(=O)Nc1ccc(C(F)(F)F)cc1Cl [Example 258, 2-(4-(4-(2-((2-Chloro-4-(trifluoromethyl)phenyl)amino)-2-oxoethyl)-5-ethyl-2-morpholino-7-oxo-4,7-dihydro-[1,2,4]triazolo[1,5-a]pyrimidin-6-yl)piperazin-1-yl)-2-oxo-N-(thiazol-2-yl)acetamide]	< 100	< 100
CCc1c(N2CCN(C(=O)CNC(=O)c3ccccc3F)CC2)c(=O)n2nc(C3=CCOCC3)nc2n1CC(=O)Nc1ccc(C(F)(F)F)cc1 [Example 148, N-(2-(4-(2-(3,6-Dihydro-2H-pyran-4-yl)-5-ethyl-7-oxo-4-(2-oxo-2-((4-(trifluoromethyl)phenyl)amino)ethyl)-4,7-dihydro-[1,2,4]triazolo[1,5-a]pyrimidin-6-yl)piperazin-1-yl)-2-oxoethyl)-2-fluorobenzamide]	< 100	< 100
CCc1c(N2CCN(C(=O)CNC(=O)NCc3ccccc3F)CC2)c(=O)n2nc(C3=CCOCC3)nc2n1CC(=O)Nc1ccc(C(F)(F)F)cc1Cl [Example 191, N-(2-Chloro-4-(trifluoromethyl)phenyl)-2-(2-(3,6-dihydro-2H-pyran-4-yl)-5-ethyl-6-(4-(((2-fluorobenzyl)carbamoyl)glycyl)piperazin-1-yl)-7-oxo-[1,2,4]triazolo[1,5-a]pyrimidin-4(7H)-yl)acetamide]	< 100	< 100
CCc1c(N2CCN(C(=O)CNC(=O)c3ncnc(C)c3O)CC2)c(=O)n2nc(C3=CCOCC3)nc2n1CC(=O)Nc1ccc(C(F)(F)F)cc1F [Example 222, N-(2-(4-(2-(3,6-Dihydro-2H-pyran-4-yl)-5-ethyl-4-(2-((2-fluoro-4-(trifluoromethyl)phenyl)amino)-2-oxoethyl)-7-oxo-4,7-dihydro-[1,2,4]triazolo[1,5-a]pyrimidin-6-yl)piperazin-1-yl)-2-oxoethyl)-5-hydroxy-6-methylpyrimidine-4-carboxamide]	< 100	< 100
CCc1c(N2CCN(C(=O)c3cccc4cn[nH]c34)CC2)c(=O)n2nc(C3=CCOCC3)nc2n1CC(=O)Nc1ccc(C(F)(F)F)cc1Cl [Example 90, 2-(6-(4-(1H-Indazole-7-carbonyl)piperazin-1-yl)-2-(3,6-dihydro-2H-pyran-4-yl)-5-ethyl-7-oxo-[1,2,4]triazolo[1,5-a]pyrimidin-4(7H)-yl)-N-(2-chloro-4-(trifluoromethyl)phenyl)acetamide]	< 100	100 to 1000
CCc1c(N2CCN(C(=O)CNC(=O)c3ccc(F)c(F)c3O)CC2)c(=O)n2nc(C3=CCOCC3)nc2n1CC(=O)Nc1ccc(C(F)(F)F)cc1F [Example 214, N-(2-(4-(2-(3,6-Dihydro-2H-pyran-4-yl)-5-ethyl-4-(2-((2-fluoro-4-(trifluoromethyl)phenyl)amino)-2-oxoethyl)-7-oxo-4,7-dihydro-[1,2,4]triazolo[1,5-a]pyrimidin-6-yl)piperazin-1-yl)-2-oxoethyl)-3,4-difluoro-2-hydroxybenzamide]	< 100	< 100
CCNC(=O)NCC(=O)N1CCN(c2c(CC)n(CC(=O)Nc3ccc(C(F)(F)F)cc3Cl)c3nc(C4=CCOCC4)nn3c2=O)CC1 [Example 41, N-(2-Chloro-4-(trifluoromethyl)phenyl)-2-(2-(3,6-dihydro-2H-pyran-4-yl)-5-ethyl-6-(4-((ethylcarbamoyl)glycyl)piperazin-1-yl)-7-oxo-[1,2,4]triazolo[1,5-a]pyrimidin-4(7H)-yl)acetamide]	< 100	< 100
CCc1c(N2CCN(C(=O)C(=O)NC3CC3)CC2)c(=O)n2nc(C3=CCOCC3)nc2n1CC(=O)Nc1ccc(C(F)(F)F)cc1Cl [Example 359, 2-(4-(4-(2-((2-Chloro-4-(trifluoromethyl)phenyl)amino)-2-oxoethyl)-2-(3,6-dihydro-2H-pyran-4-yl)-5-ethyl-7-oxo-4,7-dihydro-[1,2,4]triazolo[1,5-a]pyrimidin-6-yl)piperazin-1-yl)-N-cyclopropyl-2-oxoacetamide]	100 to 1000	100 to 1000
CCc1c(N2CCN(C(=O)C(=O)N3CCCC3)CC2)c(=O)n2nc(C3=CCOCC3)nc2n1CC(=O)Nc1ccc(C(F)(F)F)cc1Cl [Example 358, N-(2-Chloro-4-(trifluoromethyl)phenyl)-2-(2-(3,6-dihydro-2H-pyran-4-yl)-5-ethyl-7-oxo-6-(4-(2-oxo-2-(pyrrolidin-1-yl)acetyl)piperazin-1-yl)-[1,2,4]triazolo[1,5-a]pyrimidin-4(7H)-yl)acetamide]	100 to 1000	100 to 1000
CCc1c(N2CCN(C(=O)CNC(=O)c3cc(C)on3)CC2)c(=O)n2nc(C3=CCOCC3)nc2n1CC(=O)Nc1ccc(C(F)(F)F)cc1Cl [Example 107, N-(2-(4-(4-(2-((2-Chloro-4-(trifluoromethyl)phenyl)amino)-2-oxoethyl)-2-(3,6-dihydro-2H-pyran-4-yl)-5-ethyl-7-oxo-4,7-dihydro-[1,2,4]triazolo[1,5-a]pyrimidin-6-yl)piperazin-1-yl)-2-oxoethyl)-5-methylisoxazole-3-carboxamide]	< 100	< 100
CCc1c(N2CCN(C(=O)CNC(=O)c3ccccc3F)CC2)c(=O)n2nc(C3=CCOCC3)nc2n1CC(=O)Nc1cc(C(F)(F)F)n(C)n1 [Example 162, N-(2-(4-(2-(3,6-Dihydro-2H-pyran-4-yl)-5-ethyl-4-(2-((1-methyl-5-(trifluoromethyl)-1H-pyrazol-3-yl)amino)-2-oxoethyl)-7-oxo-4,7-dihydro-[1,2,4]triazolo[1,5-a]pyrimidin-6-yl)piperazin-1-yl)-2-oxoethyl)-2-fluorobenzamide]	100 to 1000	100 to 1000
CCc1c(N2CCN(C(=O)NS(=O)(=O)c3cnn(C)c3)CC2)c(=O)n2nc(C3=CCOCC3)nc2n1CC(=O)Nc1ccc(C(F)(F)F)cc1Cl [Example 14, 4-(4-(2-((2-Chloro-4-(trifluoromethyl)phenyl)amino)-2-oxoethyl)-2-(3,6-dihydro-2H-pyran-4-yl)-5-ethyl-7-oxo-4,7-dihydro-[1,2,4]triazolo[1,5-a]pyrimidin-6-yl)-N-((1-methyl-1H-pyrazol-4-yl)sulfonyl)piperazine-1-carboxamide]	< 100	< 100
CCc1c(N2CCN(C(=O)c3cc4ccnn4cn3)CC2)c(=O)n2nc(C3=CCOCC3)nc2n1CC(=O)Nc1ccc(C(F)(F)F)cc1Cl [Example 296, N-(2-Chloro-4-(trifluoromethyl)phenyl)-2-(2-(3,6-dihydro-2H-pyran-4-yl)-5-ethyl-7-oxo-6-(4-(pyrazolo[1,5-c]pyrimidine-5-carbonyl)piperazin-1-yl)-[1,2,4]triazolo[1,5-a]pyrimidin-4(7H)-yl)acetamide]	100 to 1000	100 to 1000
CCc1c(N2CCN(C(=O)CNC(=O)c3ccnn3C)CC2)c(=O)n2nc(C3=CCOCC3)nc2n1CC(=O)Nc1ccc(C(F)(F)F)cc1Cl [Example 114, N-(2-(4-(4-(2-((2-Chloro-4-(trifluoromethyl)phenyl)amino)-2-oxoethyl)-2-(3,6-dihydro-2H-pyran-4-yl)-5-ethyl-7-oxo-4,7-dihydro-[1,2,4]triazolo[1,5-a]pyrimidin-6-yl)piperazin-1-yl)-2-oxoethyl)-1-methyl-1H-pyrazole-5-carboxamide]	< 100	< 100
